Key:
Caco-2 cells = conditions: ref Gertz et al., 2013; cited from earlier work
CYP3A [1] = test: MDZ kinetics used for initial estimates; format: biochemical, rat
CYP3A [2] = conditions: substrate related parameter; ref Kirby et al., 2011; cited from earlier work
[3] = substrate related parameter; ref Kotegawa et al., 2002, Matsuda et al., 2012; cited from earlier work

With `CC[C@H]1OC(=O)[C@H](C)[C@@H](O[C@H]2C[C@@](C)(OC)[C@@H](O)[C@H](C)O2)[C@H](C)[C@@H](O[C@@H]2O[C@H](C)C[C@H](N(C)C)[C@H]2O)[C@](C)(O)C[C@@H](C)C(=O)[C@H](C)[C@@H](O)[C@]1(C)O` [ERY, erythromycin] as the compound, how does the Papp (Caco-2 cells) read?
Its Papp is 0.44 ×10⁻⁶ cm/s.

With `Cc1ncc2n1-c1ccc(Cl)cc1C(c1ccccc1F)=NC2` [MDZ, midazolam] as the compound, how does the “kcat (k3)” value (CYP3A [1]; initial estimate from experimental samples without inhibitor) read?
The value was “approx. 10 min^−1”.

And the Km (CYP3A [1]; rat, liver microsomes)?
The Km was 10 µM.

What about the Papp (Caco-2 cells) of the same compound?
The Papp was 32.4 ×10⁻⁶ cm/s.

And the “fm (fraction metabolized by CYP3A)” value (CYP3A [2])?
Its value is 0.93.

And the “Fg (fraction escaping gut)” value [3]?
Its value is 0.75.

— article PMC5742070 (Xenobiotica; the fate of foreign compounds in biological …, 2020)
